Measurements taken from patent US8487006B2, “Method of enhancing TGF-β signalling” (Auxagen, Inc., priority 2008, dated 2013).

Key:
[1] = system: PAI-1 expression in Mv1Lu cells; test: TGF-β1-stimulated expression of PAI-1 mRNA (Northern blot / real-time RT-PCR) in Mv1Lu cells; format: cell-based
Description: (A-G) Cells were pretreated with vehicle only or with several concentrations (as indicated) of β-CD (A,C), thioridazine (B), TFP (D), chloroquine (E), monensin (F) and MDC (G) at 37° C. for 1 h. Treated cells were then stimulated with 50 pM TGF-β1. After 2 h at 37° C., the mRNAs of PAI-1 and G3PDH (as control) in the cell lysates were analyzed by Northern blot (top) and quantified using a PhosphoImager (bottom) (A,B) or real-time RT-PCR (C to G). The TGF-β-stimulated expression of PAI-1 in cells treated with vehicle only was taken as 100% (A, B) or 1 fold (C to G) of control. […] (H) Cells were pretreated with several concentrations (as indicated) of dynasore at 37° C. for 1 h and then stimulated with 50 pM TGF-β1. After 2 h at 37° C., the mRNA of PAI-1 was quantitated by real-time RT-PCR. The relative level of PAI-1 mRNA in cells treated with TGF-β1 alone was taken as 1 (100%). Experiments were carried out in triplicate. The data shown is representative of 3 independent experiments.
The PAI-1 gene is one of the most studied genes responsive to TGF-β stimulation^4,5. The promotor region of the PAI-gene contains several Smad2/3 binding sites that have been used as the TGF-β responsive elements to enhance the expression of a reported gene^4,5. […] Cells were pretreated with vehicle only and several concentrations of β-CD, thioridazine, TFP, MDC, monensin and chloroquine at 37° C. for 1 h. Cells were then stimulated with 50 pM TGF-β1. After 2 h at 37° C., the relative levels of PAI-1 mRNA were analyzed by quantitative Northern blot analysis (FIGS. 3A and 3B) and real-time RT-PCR (FIG. 3C-3G).

wild-type mice = test: Wild-type mice treated with dynasore (organ pathology, coronary artery histology, TβR-II staining, plasma cholesterol); format: in vivo
Description: (§1) Wild-type and ApoE-null mice were treated with vehicle only (a, c) or 1 mg/kg dynasore (b, d) every two days for 8 weeks. The coronary arteries were removed from the animals and subjected to histological analysis by H & E staining (A) and indirect immunofluorescent staining for TβR-II(B). The asterisk (*) indicates the location of the lumen in coronary arteries. The arrow indicates the immunofluorescent staining of TβR-II in the aortic endothelium.
(§2) We hypothesize that TGF-β enhancers such as inhibitors of clathrin-dependent endocytosis may ameliorate atherosclerosis caused by cholesterol-induced suppression of TGF-β responsiveness in vascular cells^3,12. To test our hypothesis, we treated hypercholesterolemic ApoE-null mice with dynasore (1 mg/kg body weight) via intraperitoneal administration every two days for 8 weeks. We chose dynasore for two reasons. […] At 50 μM, it enhances TGF-β-stimulated expression of PAI-1 in these cell types by ˜4-5 fold, 2) Dynasore is the only inhibitor tested which alone is capable of stimulating PAI-1 expression. […] The plasma levels of cholesterol in wild-type mice treated with either vehicle only or dynasore were 120±10 and 125±20 mg/dl, respectively.
(§3) However, no TβR-II staining was found in the aortic endothelium and smooth muscle of coronary arteries in ApoE-null mice treated with vehicle only (FIG. 4Bc).

[2] = system: hypercholesterolemic ApoE-null mice; test: Atherosclerosis in hypercholesterolemic ApoE-null mice (coronary artery histology, TβR-II staining, plasma cholesterol); format: in vivo
Description: as §1, §2, §3

[3] = system: PAI-1 expression in Chinese hamster ovary cells (CHO cells); test: TGF-β-stimulated expression of PAI-1 in CHO cells; format: cell-based; conditions: dynasore 50 μM; CHO cells (unpublished results)
Description: as §2

[4] = dynasore 1 mg/kg every two days for 8 weeks, indirect immunofluorescent staining

O=C(N/N=C/c1ccc(O)c(O)c1)c1cc2ccccc2cc1O [dynasore]
stimulation of PAI-1 expression by dynasore alone ([1]; dynasore 25 μM without TGF-β1, real-time RT-PCR): to the same extent as with 50 pM TGF-β1 alone | enhancement of TGF-β-stimulated expression of PAI-1 ([1]; dynasore 50 μM): 4-5 fold | enhancement of TGF-β1-stimulated PAI-1 expression ([1]; dynasore 50 μM, 50 pM TGF-β1 for 2 h, real-time RT-PCR): ~5 fold | morphology of the coronary arteries (wild-type mice; dynasore 1 mg/kg every two days for 8 weeks, H & E staining): normal morphology | macroscopic or microscopic abnormality in the liver, heart, lung and kidney (wild-type mice; dynasore 1 mg/kg intraperitoneal every 2 days for 8 weeks): no apparent macroscopic or microscopic abnormality has been detected | TβR-II staining in the aortic endothelium of coronary arteries [2, 4]: appeared to restore the TβR-II staining | TβR-II staining in the smooth muscle near the endothelium [2, 4]: slight staining of TβR-II was found | effect on atherosclerosis ([2]; dynasore 1 mg/kg intraperitoneal every two days for 8 weeks): effectively ameliorates atherosclerosis | macrophages or foam cells in the endothelium of the coronary arteries ([2]; dynasore 1 mg/kg intraperitoneal every two days for 8 weeks, H & E staining): very few macrophages or foam cells were found | enhancement of TGF-β-stimulated expression of PAI-1 [3]: 4-5 fold
